From US12473289B2, “Heterocyclic compounds as delta-5 desaturase inhibitors and methods of use” (Amgen Inc., priority 2019, dated 2025)

The compounds below were run against Delta-5-Desaturase (D5D) (Homo sapiens (Human), UniProt O60427) (assay: In vitro measurement of Delta-5-Desaturase inhibitory activity using DGLA-CoA and Arachidonyl-CoA mass spectrometric assays). Details: membrane preparations of D5D-overexpressing HEK293 6E cells; averaged over at least two independent runs.
Type: biochemical
Description: In vitro Measurement of Delta-5-Desaturase Inhibitory Activity using DGLA-CoA and Arachidonyl-CoA Mass Spectrometric Assays
Membrane preparations of D5D-overexpressing HEK293 6E cells were prepared in which the total protein concentration was 5.6 mg/mL. Stock D5D membrane preparations were diluted in D5D assay buffer (25 mM 2-amino-2-(hydroxymethyl)-1,3-propanediol, pH 7.5 containing 10 mM MgCl2, 1 mM octyl glucoside (SigmaAldrich 0-8001), 1 mM tris(2-carboxyethyl)phosphine hydrochloride (SigmaAldrich 646547)) to a final D5D membrane concentration of 10 μg/mL in an assay plate containing serially diluted test compounds. To 15 μL of this D5D preparation was added 15 μL of a substrate solution (0.25 mM NADH (nicotinamide adenine dinucleotide, Roche Diag. 10107735001), 0.25 mM adenosine triphosphate (SigmaAldrich A-3377), 0.05 mM coenzyme A hydrate (SigmaAldrich C-4282), and 0.01 mM DGLA (dihomo-g-linolenic acid, Sigma E-4504) in the same D5D assay buffer. After one-hour incubation at ambient temperature acetonitrile (30 μL) was added to quench the reaction and plates were centrifuged for 10 min @3,000 rpm. Mass spectrometric analysis involved a Rapidfire 360 SPE system coupled to an ABSciex API4000 Triple Quadrupole mass spectrometer using a C18 SPE cartridge (G9203-80105) with ionization in negative mode (solvent A=100% water; solvent B=100% acetonitrile, each solvent containing 5 mM ammonium acetate). DGLA-CoA and Arachidonyl-CoA were detected by multiple reaction monitoring (MRM) of the doubly charged parent ions at m/z 526.6 and 525.6, respectively.
Sx is value from unknown sample, So is value from DMSO alone and Sc is value from no enzyme well. For CRC analysis, the % of inhibitions were analyzed with 4 Parameter Logistic Model or Sigmoidal Dose-Response Model using XLfit (IDBS, Guilford, UK). The potency of the test item was expressed as IC50 nM, corresponding to the test item concentration able to inhibit the 50% of the enzyme maximal response. IC50 values were averaged values determined by at least two independent runs.
This assay may be used to test any of the compounds described herein to assess and characterize a compound's ability to inhibit D5D.

Chain of Delta-5-Desaturase (D5D) (O60427 whole entry, species assumed): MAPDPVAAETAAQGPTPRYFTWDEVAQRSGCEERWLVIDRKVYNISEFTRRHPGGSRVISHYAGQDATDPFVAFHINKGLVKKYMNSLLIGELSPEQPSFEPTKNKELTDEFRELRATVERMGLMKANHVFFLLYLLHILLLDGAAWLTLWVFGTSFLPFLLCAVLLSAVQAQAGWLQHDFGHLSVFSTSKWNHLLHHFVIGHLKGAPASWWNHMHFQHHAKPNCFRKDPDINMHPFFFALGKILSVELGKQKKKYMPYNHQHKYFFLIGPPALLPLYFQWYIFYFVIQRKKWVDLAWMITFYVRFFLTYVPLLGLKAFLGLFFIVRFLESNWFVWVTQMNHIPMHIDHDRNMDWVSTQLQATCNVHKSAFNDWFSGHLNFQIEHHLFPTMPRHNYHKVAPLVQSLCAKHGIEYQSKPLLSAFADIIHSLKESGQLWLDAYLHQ

| Compound | IC50 [nM] |
| --- | --- |
| O=c1c(-c2cnc(OCC(F)(F)F)nc2)c(C(F)(F)F)nc2n1CCOC2 [Example 39-39, 3-[2-(2,2,2-trifluoroethoxy)pyrimidin-5-yl]-2-(trifluoromethyl)-4H,6H,7H,9H-pyrimido[2,1-c][1,4]oxazin-4-one] | > 67000 |
| C[S@+]([O-])c1ccn2c(=O)c(-c3cnn(CC(F)(F)C(F)(F)F)c3)c(C(F)(F)F)nc2c1 [Example 15-5, 8-((S)-methylsulfinyl)-3-(1-(2,2,3,3,3-pentafluoropropyl)-1H-pyrazol-4-yl)-2-(trifluoromethyl)-4H-pyrido[1,2-a]pyrimidin-4-one] | 159 |
| COc1ccn2c(=O)c(-c3cnn(C[C@@H]4CC4(F)F)c3)c(C(F)(F)F)nc2c1 [Example 70, 3-(1-{[(1S)-2,2-Difluorocyclopropyl]methyl}-1H-pyrazol-4-yl)-8-methoxy-2-(trifluoromethyl)-4H-pyrido[1,2-a]pyrimidin-4-one] | 10.5 |
| COc1ccn2c(=O)c(-c3nnn(CC(F)(F)C(F)(F)F)c3I)c(C(F)(F)F)nc2c1 [Example 52, 3-[5-Iodo-1-(2,2,3,3,3-pentafluoropropyl)-1H-1,2,3-triazol-4-yl]-8-methoxy-2-(trifluoromethyl)-4H-pyrido[1,2-a]pyrimidin-4-one] | 158 |
| Cc1nccn2c(=O)c(-c3cnn(CC(F)(F)C(F)(F)F)c3)c(C(F)(F)F)nc12 [Example 39-41, 9-methyl-3-[1-(2,2,3,3,3-pentafluoropropyl)-1H-pyrazol-4-yl]-2-(trifluoromethyl)-4H-pyrazino[1,2-a]pyrimidin-4-one] | 65.1 |
| COc1ccn2c(=O)c(-c3ccc(CCC(F)(F)F)cc3)c(C(F)(F)F)nc2c1 [Example 7-5, 8-methoxy-2-(trifluoromethyl)-3-(4-(3,3,3-trifluoropropyl)phenyl)-4H-pyrido[1,2-a]pyrimidin-4-one] | 11.9 |
| COc1ccn2c(=O)c(-c3ncc(OCC(F)(F)F)s3)c(C(F)(F)F)nc2c1 [Example 57, 8-methoxy-3-[5-(2,2,2-trifluoroethoxy)-1,3-thiazol-2-yl]-2-(trifluoromethyl)-4H-pyrido[1,2-a]pyrimidin-4-one] | 1150 |
| CSc1ccn2c(=O)c(-c3cnn(CC(F)(F)C(F)(F)F)c3)c(C(F)(F)F)nc2c1 [Example 1-30, 8-(methylsulfanyl)-3-(1-(2,2,3,3,3-pentafluoropropyl)-1H-pyrazol-4-yl)-2-(trifluoromethyl)-4H-pyrido[1,2-a]pyrimidin-4-one] | 18.8 |
| COc1ccn2c(=O)c(-c3ccc(OCC#N)cc3)c(C(F)(F)F)nc2c1 [Example 21, (4-(8-Methoxy-4-oxo-2-(trifluoromethyl)-4H-pyrido[1,2-a]pyrimidin-3-yl)phenoxy)acetonitrile] | 5.8 |
| COc1ccn2c(=O)c(-c3cnc(OCC(F)(F)F)s3)c(C(F)(F)F)nc2c1 [Example 56, 8-Methoxy-3-[2-(2,2,2-trifluoroethoxy)-1,3-thiazol-5-yl]-2-(trifluoromethyl)-4H-pyrido[1,2-a]pyrimidin-4-one] | 21.5 |
| O=c1c(-c2cnn(CC(F)(F)C(F)(F)F)c2)c(C(F)(F)F)nc2cc(O)cnn12 [Example 44, 8-Hydroxy-3-[1-(2,2,3,3,3-pentafluoropropyl)-1H-pyrazol-4-yl]-2-(trifluoromethyl)-4H-pyrimido[1,2-b]pyridazin-4-one] | 1810 |
| COc1ccn2c(=O)c(-c3ccc(OCC(F)(F)F)cc3C(F)(F)F)c(C(F)(F)F)nc2c1 [Example 8-2, 8-methoxy-3-(4-(2,2,2-trifluoroethoxy)-2-(trifluoromethyl)phenyl)-2-(trifluoromethyl)-4H-pyrido[1,2-a]pyrimidin-4-one] | 605 |
| COc1ccn2c(=O)c(-c3ncn(CC(F)(F)C(F)(F)F)n3)c(C(F)(F)F)nc2c1 [Example 54, 8-Methoxy-3-[1-(2,2,3,3,3-pentafluoropropyl)-1H-1,2,4-triazol-3-yl]-2-(trifluoromethyl)-4H-pyrido[1,2-a]pyrimidin-4-one] | > 67000 |
| Cc1cc2nc(C(F)(F)F)c(-c3cnn(CCC(F)(F)F)c3)c(=O)n2nc1C [Example 39-47, 7,8-dimethyl-2-(trifluoromethyl)-3-[1-(3,3,3-trifluoropropyl)-1H-pyrazol-4-yl]-4H-pyrimido[1,2-b]pyridazin-4-one] | 65.6 |
| COc1ccn2c(=O)c(-c3ccc(OCC(F)(F)F)nc3)c(C(F)F)nc2c1 [Example 1-13, 2-(difluoromethyl)-8-methoxy-3-(6-(2,2,2-trifluoroethoxy)-3-pyridinyl)-4H-pyrido[1,2-a]pyrimidin-4-one] | 34.2 |
| Cc1cnn2c(=O)c(-c3cnn(CC4CC4)c3)c(C(F)(F)F)nc2c1 [Example 39-51, 3-[1-(cyclopropylmethyl)-1H-pyrazol-4-yl]-8-methyl-2-(trifluoromethyl)-4H-pyrimido[1,2-b]pyridazin-4-one] | 74.3 |
| COc1cc(C)n2c(=O)c(-c3cnn(CC(F)(F)C(F)(F)F)c3)c(C(F)(F)F)nc2c1 [Example 39-8, 8-methoxy-6-methyl-3-[1-(2,2,3,3,3-pentafluoropropyl)-1H-pyrazol-4-yl]-2-(trifluoromethyl)-4H-pyrido[1,2-a]pyrimidin-4-one] | 1350 |
| COc1cc2nc(C(F)(F)F)c(-c3cnn(CCC(F)(F)F)c3)c(=O)n2cc1Cl [Example 39-2, 7-chloro-8-methoxy-2-(trifluoromethyl)-3-[1-(3,3,3-trifluoropropyl)-1H-pyrazol-4-yl]-4H-pyrido[1,2-a]pyrimidin-4-one] | 113 |
| N#Cc1ccc2nc(C(F)(F)F)c(-c3cnn(CC(F)(F)C(F)(F)F)c3)c(=O)n2c1 [Example 39-9, 4-oxo-3-[1-(2,2,3,3,3-pentafluoropropyl)-1H-pyrazol-4-yl]-2-(trifluoromethyl)-4H-pyrido[1,2-a]pyrimidine-7-carbonitrile] | 47.3 |
| CC(C)(O)c1ccn2c(=O)c(-c3cnn(CC(F)(F)C(F)(F)F)c3)c(C(F)(F)F)nc2c1 [Example 39-7, 8-(2-hydroxypropan-2-yl)-3-[1-(2,2,3,3,3-pentafluoropropyl)-1H-pyrazol-4-yl]-2-(trifluoromethyl)-4H-pyrido[1,2-a]pyrimidin-4-one] | 1430 |
| COc1ccn2c(=O)c(-c3cnn(CCC#N)c3)c(C(F)(F)F)nc2c1 [Example 1-24, 3-(4-(8-methoxy-4-oxo-2-(trifluoromethyl)-4H-pyrido[1,2-a]pyrimidin-3-yl)-1H-pyrazol-1-yl)propanenitrile] | 833 |
| COc1ccc2nc(C(F)(F)F)c(-c3cnn(CC(F)(F)C(F)(F)F)c3)c(=O)n2c1 [Example 39-6, 7-methoxy-3-[1-(2,2,3,3,3-pentafluoropropyl)-1H-pyrazol-4-yl]-2-(trifluoromethyl)-4H-pyrido[1,2-a]pyrimidin-4-one] | 115 |
| COc1ccn2c(=O)c(-c3ccn(-c4ccccc4)n3)c(C(F)(F)F)nc2c1 [Example 1-3, 8-methoxy-3-(1-phenyl-1H-pyrazol-3-yl)-2-(trifluoromethyl)-4H-pyrido[1,2-a]pyrimidin-4-one] | 371 |
| Cc1ccn2c(=O)c(-c3noc(CCC(F)(F)F)n3)c(C(F)(F)F)nc2c1 [Example 50, 8-Methyl-2-(trifluoromethyl)-3-[5-(3,3,3-trifluoropropyl)-1,2,4-oxadiazol-3-yl]-4H-pyrido[1,2-a]pyrimidin-4-one] | 5380 |
| COc1ccn2c(=O)c(-c3cnn(CC(F)(F)C(F)(F)F)c3)c(C(F)(F)F)nc2c1F [Example 39-4, 9-fluoro-8-methoxy-3-[1-(2,2,3,3,3-pentafluoropropyl)-1H-pyrazol-4-yl]-2-(trifluoromethyl)-4H-pyrido[1,2-a]pyrimidin-4-one] | 46.4 |
| C[C@@H](O)c1ccn2c(=O)c(-c3cnn(CC(F)(F)C(F)(F)F)c3)c(C(F)(F)F)nc2c1 [Example 31-1, 8-((1R)-1-hydroxyethyl)-3-(1-(2,2,3,3,3-pentafluoropropyl)-1H-pyrazol-4-yl)-2-(trifluoromethyl)-4H-pyrido[1,2-a]pyrimidin-4-one] | 164 |
| O=c1ccn2c(=O)c(-c3ccc(OCC(F)(F)F)cc3)c(C(F)(F)F)nc2[nH]1 [Example 10-3, 7-(4-(2,2,2-trifluoroethoxy)phenyl)-8-(trifluoromethyl)-2H-pyrimido[1,2-a]pyrimidine-2,6(1H)-dione] | 900 |
| O=c1c(-c2ccc(OCC(F)(F)F)cc2)c(C(F)(F)F)nc2cc(OCF)ccn12 [Example 17-2, 8-(fluoromethoxy)-3-(4-(2,2,2-trifluoroethoxy)phenyl)-2-(trifluoromethyl)-4H-pyrido[1,2-a]pyrimidin-4-one] | 48.6 |
| O=c1c(-c2ccc(OCC(F)(F)F)c(Cl)c2)c(C(F)(F)F)nc2ccccn12 [Example 5-2, 3-(3-chloro-4-(2,2,2-trifluoroethoxy)phenyl)-2-(trifluoromethyl)-4H-pyrido[1,2-a]pyrimidin-4-one] | 157 |
